From patent publication US20230192705A1, “SHP2 INHIBITORS, COMPOSITIONS AND USES THEREOF” (Betta Pharmaceuticals Co., Ltd, priority 2020, published 2023) come the findings set out here.

One data set relates to leukemia MV-4-11 cell. The data set can be described thus: Cell proliferation assay (CellTiter-Glo), MV-4-11. The format is cell-based. Conditions: Homo sapiens, MV4-11; MV-4-11, 120 hrs, CTG; class symbols; read-out: Compound on MV-4-11 cell IC50. How it is done: (§1) The effects of the compounds on the proliferation of leukemia MV-4-11 cell and lung cancer NCI-H358 cell were evaluated by in vitro cell test. The assay used in this study was the CELL TITER-GLO (CTG) luminescence assay, which can detect the number of living cells by quantitative determination of ATP. Because ATP is involved in a variety of enzymatic reactions in vivo and is an indicator of the metabolism of living cells, its content can directly reflects the number and state of cells. During the experiment, Celltiter-Glo™ reagent was added to the cell culture medium to measure the luminescence value. The luminescence value was proportional to the amount of ATP, which in turn was positively correlated with the number of living cells. Therefore, ATP content can be used to detect cell viability.
A bottle of MV-4-11 cells in logarithmic growth phase was taken, the cells were collected, centrifuged, resuspend, counted, and then inoculated into 96-well Microplate (Corning #3917), with 4000 cells inoculated in each well. The plates were placed in an incubator at 37° C. and 5% CO2 for 24 hrs culture, and the compounds of the invention were added for conducting.
(§2) An appropriate amount of the compound of the invention was taken for cell treatment, and the final concentration of the compound from high to low was 1000 nM, 333.3 nM, 111.1 nM, 37.04 nM, 12.35 nM, 4.115 nM, 1.372 nm, 0.4572 nM, 0.1524 nM, 0 nM, respectively. The orifice plate was cultured in an incubator at 37° C. and 5% CO2. Only adding medium without adding cell hole was set as blank group. Compound concentration of 0 nM group was zero control group.
After cultured for 120 hrs, MV-4-11 cells were added with 50 μL CellTiter-Glo® Luminescent cell viability assay solution in each well, gently shaken for 2 mins, and incubated at room temperature for 10 mins. The detection values of each well were read on the multi-functional microplate reader.
(§3) The inhibition rate is calculated according to the luminous value reading,
(§4) Inhibition rate %=(1−(administration group value−blank group value)/(control group value−blank group value)*100
(§5) The log (inhibitor) vs. response variable slope of GraphPad Prism was used to fit the dose-response curve and calculate the IC50 of compounds inhibiting cell proliferation.
For orientation: In ATP-based viability assays light output follows the ATP content of the culture.

Data set [1] concerns lung cancer NCI-H358 cell. The data set can be described thus: Cell proliferation assay (CellTiter-Glo), NCI-H358. The data set is classed as cell-based. Conditions: Homo sapiens; NCI-H358, 96 hrs, CTG; class symbols; read-out: Compound on NCI-H358 cell IC50. As to the method: as §1
A bottle of NCI-H358 cells in logarithmic growth phase was taken, the cells were digested and resuspend, counted, and then the cell density was adjusted. After that, the cells were inoculated into a 96-well Ultra-Low Attachment Microplate (Corning #3474), 2000 cells were inoculated in each well, and the well plate was placed in an incubator at 37° C. and 5% CO2, and the compounds of the invention were added for conducting.
as §2
NCI-H358 cells were cultured for 96 hrs, then 50 μL CellTiter-Glo® Luminescent cell viability assay solution was added to each well, and the cells were gently shaken for 2 mins, and incubated at room temperature for 10 mins. The cell reaction system was transferred to 96-well Microplate (Corning #3917). The detection values of each well were read on the multi-functional microplate reader.
as §3, §4, §5

The target in another data set is T1, hERG channel (Homo sapiens, UniProt Q12809).
T1 construct: expressed in transfected cells; host or cells: HEK-293
T1 sequence (Q12809 whole entry): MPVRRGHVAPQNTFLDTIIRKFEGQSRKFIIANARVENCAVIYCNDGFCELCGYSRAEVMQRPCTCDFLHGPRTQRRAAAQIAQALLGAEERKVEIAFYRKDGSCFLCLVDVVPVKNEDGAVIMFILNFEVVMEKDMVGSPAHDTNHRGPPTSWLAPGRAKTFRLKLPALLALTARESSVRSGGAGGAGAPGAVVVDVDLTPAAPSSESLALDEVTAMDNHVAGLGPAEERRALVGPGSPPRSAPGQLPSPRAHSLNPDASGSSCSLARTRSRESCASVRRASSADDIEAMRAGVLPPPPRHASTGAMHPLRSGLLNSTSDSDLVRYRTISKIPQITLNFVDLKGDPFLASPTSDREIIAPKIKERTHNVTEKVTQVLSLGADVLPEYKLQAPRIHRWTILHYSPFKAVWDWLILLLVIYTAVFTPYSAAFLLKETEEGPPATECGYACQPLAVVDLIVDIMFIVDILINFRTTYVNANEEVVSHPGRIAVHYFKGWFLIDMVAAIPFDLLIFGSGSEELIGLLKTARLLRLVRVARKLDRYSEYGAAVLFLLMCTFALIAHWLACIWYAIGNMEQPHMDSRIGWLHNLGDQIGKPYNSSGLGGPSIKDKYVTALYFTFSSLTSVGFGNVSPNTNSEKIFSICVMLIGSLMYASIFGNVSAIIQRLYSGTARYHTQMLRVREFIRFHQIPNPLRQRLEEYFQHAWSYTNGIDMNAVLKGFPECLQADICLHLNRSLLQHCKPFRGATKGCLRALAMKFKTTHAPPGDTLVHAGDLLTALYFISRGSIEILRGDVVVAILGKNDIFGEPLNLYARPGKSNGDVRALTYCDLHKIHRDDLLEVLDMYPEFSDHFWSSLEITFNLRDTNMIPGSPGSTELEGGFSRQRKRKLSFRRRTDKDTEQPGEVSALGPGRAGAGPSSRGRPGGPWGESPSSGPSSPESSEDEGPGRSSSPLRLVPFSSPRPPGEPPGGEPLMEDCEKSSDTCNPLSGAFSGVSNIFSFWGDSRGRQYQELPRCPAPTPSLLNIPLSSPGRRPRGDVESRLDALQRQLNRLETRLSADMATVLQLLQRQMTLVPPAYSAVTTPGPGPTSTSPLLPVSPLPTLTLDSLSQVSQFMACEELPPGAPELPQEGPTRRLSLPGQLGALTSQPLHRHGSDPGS
The data set is described as follows: Patch clamp assay to test the effect of compound on hERG channel. Conditions: manual patch clamp, HEK 293 cells expressed with hERG, concentration for half maximum effect. The format is cell-based. As to the method: 10 mL extracellular solution was used to dilute the stock solution, making the final concentrations of test compound were 0.3 μM, 1 μM, 3 μM, 10 μM and 30 μM.
The solubility of compound was visually observed.
The cell line was derived from HEK-293 cells, and grown in a humidified environment at 37° C. under 5% CO2, using the media formulation below. The cell line should not be allowed to exceed 80% confluence within the culture vessel to prevent contact inhibition causing senescence and should thus be passaged every 3/4 days using a seeding density of 2*10^6 cells per T175 flask. Cell lines were be pre-washed with phosphate buffered saline before harvesting with Trypsin/EDTA and seeded into new flasks.
HEK 293 cells expressed with hERG were plated on cover slips overnight with the cell density less than 50% of confluence. Cells used for electrophysiological study were transferred to a small cell bath (1 mL) mounted on the stage of an inverted microscope (Diaphot, Nikon) and were perfused with external solution containing (in mM) 130 NaCl, 4 KCl, 1.8 CaCl2), 1 MgCl2, 10 glucose and 10 HEPES (pH 7.4 with NaOH), the perfusion rate was 4 mL/min. The internal pipette solution contained (in mM) 130 KCl, 1 MgCl2, 5 ethylene glycol-bis(baminoethyl ether)-N,N,N8,N8-tetraacetic acid, 5 MgATP and 10 HEPES (pH 7.2 with KOH). An HEKA EPC-10 patch-clamp amplifier and PATCHMASTER acquisition program were used to record membrane currents (HEKA Instruments IncD-67466 Lambrecht/Pfalz Germany). All experiments were performed at room temperature (22-23° C.).
The Model P-97 micropipette puller (Sutter Instrument Company, One Digital Drive, Novato, Calif. 94949) was used to pull glass patch pipettes (BF150-86-10) in all experiments.
The experiments were initiated with a 2 min vehicle control period after forming a whole cell configuration with less 5% run-down in 5 min and the tail currents in the report were at least greater than 500 pA. After a 2 min vehicle control period, the perfusion was switched to the reservoir containing the compound at the first concentration. The same procedure was repeated 3-5 times so that each cell was exposed to 4-6 escalating concentrations of compound. The time courses for block and unblock of hERG during compounds exposure and washout were continuously recorded.
The peak tail of hERG was generated by applying 2-sec depolarizing every 12 sec steps from a holding potential of −80 mV, the peak of tail currents were measured at a 5-sec repolarizing pulse at −50 mV.
hERG peak tail currents were directly measured from a 5 sec repolarization pulse at −50 mV. The fraction of control current was plotted as a function of logarithm of compound concentration. To determine the concentration of compound for halfmaximum effect, the concentration-response curve was fitted by Hill equation as shown follow.
where Y is the observed value, Bottom is the lowest observed value (0), Top is the highest observed value (1), and the Hillcoefficient gives the largest absolute value of the slope of the curve.
Data were analyzed by a combination of PATCHMASTER ((HEKA Instruments IncD-67466 Lambrecht/Pfalz Germany) and Origin (OriginLab Corporation, Northampton, Mass.) software programs.
Data were expressed as mean±SEM.
(In general: Patch clamp records ionic current or voltage across a cell membrane.)

Data set [2] in a line: In vitro metabolic stability in rat liver microsome. The format is in vitro ADME. The settings on record: rat liver microsomes. How it is done:
(§6) 1900 mg MgCl2 was dissolved into a final volume of 400 mL ultra-pure water.
(§7) 17.42 g K2HPO4 and 13.65 g KH2PO4 were dissolved into a final volume of 1000 mL ultra-pure water, respectively. K2HPO4 and KH2PO4 were mixed to prepare 100 mM potassium phosphate (PBS) buffer. The pH value of the final solution was adjusted to pH 7.30±0.10.
(§8) Cold ACN (including 10 ng/mL Labetalol and 10 ng/mL Glibenclamid) was stored at 4° C.
(§9) Working Solution Preparation:
(§10) Verapamil (positive control) and test compound stock solution were diluted into a concentration of 50 μM and 200 μM respectively, using MeOH/ACN/H2O solution (1:1:2, v/v/v).
(§11) 1) 40 μL MgCl2 and 306 μL PBS were added to 96 plate wells (blank, compound wells, compounds without NADPH wells)
(§12) 2) 4 μL compound working solution was added to above wells (blank: 4 μL PBS buffer) (Note: the volume of DMSO in final incubation system ≤0.5%)
(§13) 3) 10 μL microsomes (20 mg/mL) was added in each well. The mixture was warmed up for 10 minutes at 37.0° C.
(§14) 4) 40 μL 10 mM NADPH working solution was added to start reaction. The total volume was 400 μL.
(§15) 5) Aliquots of 50 μL samples were taken from the reaction solution at 0, 5, 15, 45 min. The reaction solutions were stopped by the addition of 400 μL stop solution.
(§16) 6) The sampling plates were shaked for approx. 5 min.
(§17) 7) Samples were centrifuged at 3200 rcf for 10 min. then transferred 50 μL to a new plate dilute with 200 μL H2O for LC/MS/MS analysis.
(§18) Use equation of first order kinetics to calculate t1/2 and CL: […]
(§19) Where k represents elimination constant, which is calculated from a log linear plot of % Remaining versus time. t1/2 represents the half-life. Cprotein is the concentration of liver microsomes.
On the technique in general: Liver microsomes are vesicles of endoplasmic reticulum, rich in cytochrome P450 enzymes.

The nature of data set [3]: In vitro metabolic stability in human liver microsome. The settings on record: human liver microsomes. The format is in vitro ADME. How it is done: as §6, §7, §8, §9, §10, §11, §12, §13, §14, §15, §16, §17, §18, §19
Another data set deals with T2, SHP2 (Homo sapiens, UniProt Q06124).
T2 sequence (Q06124 1-593): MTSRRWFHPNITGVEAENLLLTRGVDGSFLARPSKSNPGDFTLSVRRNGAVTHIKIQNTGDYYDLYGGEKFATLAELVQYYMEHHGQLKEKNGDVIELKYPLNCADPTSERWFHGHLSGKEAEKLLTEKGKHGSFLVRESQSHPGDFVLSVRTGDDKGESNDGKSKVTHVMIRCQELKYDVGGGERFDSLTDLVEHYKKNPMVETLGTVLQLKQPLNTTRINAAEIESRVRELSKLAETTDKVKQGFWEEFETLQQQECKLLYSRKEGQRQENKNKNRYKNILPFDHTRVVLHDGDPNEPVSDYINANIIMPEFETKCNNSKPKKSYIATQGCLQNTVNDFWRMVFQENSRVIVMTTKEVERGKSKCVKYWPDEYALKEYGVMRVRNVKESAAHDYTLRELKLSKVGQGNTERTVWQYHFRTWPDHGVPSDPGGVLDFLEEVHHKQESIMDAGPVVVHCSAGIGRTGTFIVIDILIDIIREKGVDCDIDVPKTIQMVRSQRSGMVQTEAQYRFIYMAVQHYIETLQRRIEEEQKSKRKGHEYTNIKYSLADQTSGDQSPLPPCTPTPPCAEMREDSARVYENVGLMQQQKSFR
The data set is described as follows: SHP2 allosteric inhibitor enzyme activity assay (DiFMUP fluorescence). The data set is classed as biochemical. The method, boiled down: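 SHP2 activated by 0.5 μM IRS1_pY1172(dPEG8)pY1222 peptide, 0.2 ng enzyme per well, 1 h at room temperature with compound (1 μM top, 3-fold series), then DiFMUP substrate 1 h. Buffer: 60 mM HEPES, 75 mM NaCl, 75 mM KCl, 0.05% BRIJ-35, 1 mM EDTA, 5 mM DTT. Fluorescence ex 340/em 450 nm; IC50 by variable-slope fit.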

The IC50 is the concentration that inhibits the measured activity by half. Take `CCOC(=O)Nc1ccc(C2(c3n[nH]c4nc(N5CCC6(CC5)Cc5ccccc5[C@H]6N)[nH]c(=O)c34)CC2)cc1` [Example 231, ethyl (S)-(4-(1-(6-(1-amino-1,3-dihydrospiro[indene-2,4′-piperidin]-1′-yl)-4-oxo-4,5-dihydro-1H-pyrazolo[3,4-d]pyrimidin-3-yl)cyclopropyl)phenyl)carbamate]: the values for the IC50 (in the data set on leukemia MV-4-11 cell; in data set [1]; on hERG channel) were at most 20 nM, 20 to 60 nM and 7500 nM, respectively.
Take `CC(C)(c1ccccc1)c1n[nH]c2nc(N3CCC4(CC3)Cc3ccccc3[C@H]4N)[nH]c(=O)c12` [Example 216, (S)-6-(1-amino-1,3-dihydrospiro[indene-2,4′-piperidin]-1′-yl)-3-(2-phenylpropan-2-yl)-1,5-dihydro-4H-pyrazolo[3,4-d]pyrimidin-4-one]: the “CLint Rat” value in data set [2] turned out to be 32.5 μL/min/mg proteins. In data set [3], the “CLint Human” value is 50.0 μL/min/mg proteins. The same compound displayed an IC50 against SHP2 (numeric values) of 1.1 nM.
For `N[C@@H]1c2ccccc2CC12CCN(c1nc3[nH]nc(C4(c5ccc(OC(F)(F)F)cc5)CC4)c3c(=O)[nH]1)CC2` [Example 233, (S)-6-(1-amino-1,3-dihydrospiro[indene-2,4′-piperidin]-1′-yl)-3-(1-(4-(trifluoromethoxy)phenyl)cyclo-propyl)-1,5-dihydro-4H-pyrazolo[3,4-d]pyrimidin-4-one], the “CLint Rat” value in data set [2] stood at 3.4 μL/min/mg proteins. Moreover, the “CLint Human” value in data set [3] came to 0.2 μL/min/mg proteins. The same compound registered an IC50 at SHP2 (class symbols) of at most 20 nM.
Consider `COc1ccc(C2(c3n[nH]c4nc(N5CCC6(CC5)Cc5ccccc5[C@H]6N)[nH]c(=O)c34)CC2)cc1` [Example 19, (S)-6-(1-amino-1,3-dihydrospiro[indene-2,4′-piperidin]-1′-yl)-3-(1-(4-methoxyphenyl)cyclopropyl)-1,5-dihydro-4H-pyrazolo[3,4-d]pyrimidin-4-one], for which the IC50 with leukemia MV-4-11 cell was at most 20 nM; in data set [1] it was 20 to 60 nM; at hERG channel it was 11700 nM.
Consider `N[C@@H]1c2ccccc2CC12CCN(c1nc3[nH]nc(C4(c5cccc(O)c5)CC4)c3c(=O)[nH]1)CC2` [Example 42, (S)-6-(1-amino-1,3-dihydrospiro[indene-2,4′-piperidin]-1′-yl)-3-(1-(3-hydroxyphenyl)cyclopropyl)-1,5-dihydro-4H-pyrazolo[3,4-d]pyrimidin-4-one], for which the IC50 on SHP2 (numeric values) was 1.9 nM; on hERG channel, over 30000 nM.
As to `N[C@@H]1c2ccccc2CC12CCN(c1nc3[nH]nc(C4(c5nc6ccccc6o5)CC4)c3c(=O)[nH]1)CC2` [Example 252, (S)-6-(1-amino-1,3-dihydrospiro[indene-2,4′-piperidin]-1′-yl)-3-(1-(benzo[d]oxazol-2-yl)cyclopropyl)-1,5-dihydro-4H-pyrazolo[3,4-d]pyrimidin-4-one], the IC50 is at most 20 nM on SHP2 (class symbols) and 20900 nM at hERG channel.
Take `N[C@@H]1c2ccccc2CC12CCN(c1nc3[nH]nc([C@H]4C[C@@H]4c4ccccc4)c3c(=O)[nH]1)CC2` [Example 185]: the values for the IC50 against SHP2 (numeric values) and on hERG channel were 0.48 nM and 590 nM, respectively.
